Laboratory results published in the NIST ThermoML archive (doi:10.1016/j.jct.2016.07.008).
Numbers after ± are expanded uncertainties.

Test: xn = mol fraction of the nth substance listed
Conditions: Liquid, Vibrating wire viscometry, x1 = 1

CCCCO [butan-1-ol] + Cc1ccc(C)c(C)c1
viscosity [mPa·s]
Conditions | 293.15 K | 298.15 K | 313.15 K | 323.15 K | 333.15 K | 348.15 K | 353.15 K
100 kPa | 2.969 ± 0.047 | 2.601 ± 0.042 | 1.797 ± 0.029 | 1.429 ± 0.023 | 1.156 ± 0.019 | 0.8579 ± 0.015 | 0.7903 ± 0.014
1000 kPa | 3.001 ± 0.048 | 2.622 ± 0.042 | 1.813 ± 0.029 | 1.44 ± 0.024 | 1.172 ± 0.019 | 0.8647 ± 0.015 | 0.7943 ± 0.014
5000 kPa | 3.108 ± 0.049 | 2.715 ± 0.043 | 1.89 ± 0.03 | 1.491 ± 0.024 | 1.227 ± 0.02 | 0.8956 ± 0.015 | 0.8284 ± 0.014
10000 kPa | 3.244 ± 0.052 | 2.834 ± 0.045 | 1.967 ± 0.032 | 1.556 ± 0.025 | 1.29 ± 0.021 | 0.9349 ± 0.016 | 0.8637 ± 0.015
20000 kPa | 3.479 ± 0.055 | 3.079 ± 0.049 | 2.14 ± 0.034 | 1.69 ± 0.027 | 1.389 ± 0.023 | 1.016 ± 0.017 | 0.9473 ± 0.016
30000 kPa | 3.788 ± 0.06 | 3.333 ± 0.053 | 2.319 ± 0.037 | 1.829 ± 0.03 | 1.504 ± 0.025 | 1.101 ± 0.018 | 1.04 ± 0.017
40000 kPa | 4.078 ± 0.065 | 3.599 ± 0.057 | 2.48 ± 0.04 | 1.975 ± 0.032 | 1.624 ± 0.026 | 1.189 ± 0.02 | 1.102 ± 0.018
50000 kPa | 4.401 ± 0.07 | 3.874 ± 0.061 | 2.629 ± 0.042 | 2.125 ± 0.034 | 1.741 ± 0.028 | 1.28 ± 0.021 | 1.21 ± 0.02
60000 kPa | 4.74 ± 0.075 | 4.16 ± 0.066 | 2.852 ± 0.045 | 2.281 ± 0.037 | 1.867 ± 0.03 | 1.375 ± 0.023 | 1.295 ± 0.021
70000 kPa | 5.076 ± 0.08 | 4.455 ± 0.071 | 3.089 ± 0.049 | 2.443 ± 0.039 | 2.014 ± 0.032 | 1.473 ± 0.024 | 1.384 ± 0.023
80000 kPa | 5.438 ± 0.086 | 4.761 ± 0.075 | 3.247 ± 0.052 | 2.61 ± 0.042 | 2.137 ± 0.034 | 1.575 ± 0.026 | 1.473 ± 0.024
100000 kPa | 6.164 ± 0.097 | 5.404 ± 0.085 | 3.686 ± 0.058 | 2.962 ± 0.047 | 2.384 ± 0.038 | 1.788 ± 0.029 | 1.676 ± 0.027
120000 kPa | 6.979 ± 0.11 | 6.087 ± 0.096 | 4.192 ± 0.066 | 3.335 ± 0.053 | 2.633 ± 0.042 | 2.015 ± 0.032 | 1.857 ± 0.03
140000 kPa | 7.843 ± 0.12 | 6.811 ± 0.11 | 4.638 ± 0.073 | 3.682 ± 0.058 | 2.883 ± 0.046 | 2.255 ± 0.036 | 2.037 ± 0.033
